The values that follow come from US8114911B2, “Prostaglandin compounds for the treatment of obesity” (Sucampo AG, priority 2003, dated 2012).

Entries after “also recorded” stand apart in the source; their conditions may differ.

The assay can be described thus: Body weight change in volunteers after 21 days of oral test capsules. The conditions noted are these: oral capsules before meals, 24, 48 or 72 μg of test substance per day for 21 days, body weight 3 weeks after initiation vs before, placebo control group increased. It counts as in vivo, human. How it is done:
13,14-dihydro-15-keto-16,16-difluoro-PGE1 was used as the test substance. Test capsule for oral administration containing 24 μg of the test substance and placebo capsule made from inert ingredients which was identical to the test capsule were prepared.
Volunteers were divided into 4 groups. The test groups received 24, 48 and 72 μg of the test substance per day respectively and the control group received the placebo. All volunteers were instructed to take one capsule before each meal (morning-, day- and evening-time) everyday for 21 days. Test group I (27 volunteers) received 24 μg of the test substance per day by taking the test capsule at the morning time and the placebo capsule at each of the day and evening times; test group II (32 volunteers) received 48 μg of the test substance per day by taking the test capsule at each of the morning and evening times and the placebo capsule at the day time; test group III (32 volunteers) received 72 μg of the test substance by taking the test capsule three times per day. Control group (33 volunteers) received the placebo capsule every time. Volunteers were instructed to take each capsule with 8 ounces of water prior to eating a meal. Body weight was measured before and 3 weeks after the initiation of the administration.

In the case of `CCCCC(F)(F)C(=O)CCC1C(O)CC(=O)C1CCCCCCC(=O)O` (stereo not shown) [13,14-dihydro-15-keto-16,16-difluoro-PGE1], the “changes of body weight from the pre-values” was “body weight reductions were observed in all test groups; also recorded: decreased in a dose dependent manner”.
